Measured values reported in patent US20100234381A1, “BIOMARKERS AND METHODS FOR DETERMINING SENSITIVITY TO VASCULAR ENDOTHELIAL GROWTH FACTOR RECEPTOR-2 MODULATORS” (Bristol-Myers Squibb Company, priority 2007, published 2010).
Entries after “also recorded” stand apart in the source; their conditions may differ.

Experiments:
[1] = test system: FGF2-stimulated cancer cell lines; assay: FGF2-stimulated tumor cell proliferation, panel of cancer cell lines; type: cell-based; details: for Brivanib-resistant (>3 μM) cell lines, number / Brivanib-sensitive (≦3 μM) cell lines, number: following FGF2 stimulation
Description: […], GEO, L2987, 786-0, A549, A498, Du145, PANC-1, ACHN, HT1197, CALU6, SKOV3, 769-[…], HCT166 and UMUC3. […] Gene expression profiling was performed on RNA samples from tumor cell lines using AFFYMETRIX® GeneChip System.

[2] = test system: FGF2 growth factor gene expression; assay: FGF2 gene expression, AFFYMETRIX human arrays
[3] = test system: FGF2-stimulated cancer cell lines; assay: FGF2-stimulated tumor cell proliferation, panel of cancer cell lines; type: cell-based; details: following FGF2 stimulation
[4] = test system: MIAPAC-2 pancreatic cancer cells; assay: FGF2-induced proliferation of MIAPAC-2 pancreatic cancer cells (modified MTS assay); type: cell-based
Description: (§1) Cell proliferation was determined by a modified MTS assay with […] 96® Aqueous One Solution Reagent (Promega, Madison, Wis.). A2780 ovarian cancer cells, MIAPAC-2 pancreatic cancer cells, or GEO colon cancer cells were seeded on 96-well flat-bottomed tissue culture plates (Becton Dickinson, San Jose, Calif.) at a concentration of 3×10^3 cells/well in RPMI 1640 with 1% fetal bovine serum at 37° C. in 5% carbon dioxide/95% air in the presence of 100 units/ml penicillin, 100 μg/ml streptomycin and allowed to adhere to the plate overnight. Then the cells were incubated in the presence of each concentration of 0 (control), 0.3, 0.6, 1.25, 2.5, 5, 10 ng/ml of FGF2 or VEGF for another 72 hours at 37° C. in a humidified atmosphere of 5% CO2 in air. After treatment, 20 μl of […] 96® Aqueous One Solution Reagent was dropped into each well of plates. After 180 minutes incubation, the optical densities (OD) of these samples were directly measured using SPECTRAMAX® plus (Molecular Device, California) and reference wavelength of 490 nm. The OD of control samples was regarded as 100. Each condition was performed with 4 wells and experiment was repeated twice.

GEO colon cancer cells = assay: VEGF-induced proliferation of GEO colon cancer cells (modified MTS assay); type: cell-based; details: VEGF 2.5 ng/ml; 72 hours
Description: Cell Culture-GEO colon cancer cell line was routinely maintained in RPMI 1640 (Cellgro, Virginia) with 1% fetal bovine serum (Cellgro, Virginia) at 37° C. in 5% carbon dioxide/95% air in the presence of 100 units/ml penicillin, 100 μg/ml streptomycin (Cellgro, Virginia). Cell proliferation was determined by a modified MTS assay with […] 96® Aqueous One Solution Reagent (Promega, Madison, Wis.). […] After 180 minutes incubation, the optical densities (OD) of these samples were directly measured using SPECTRAMAX® plus (Molecular Device, California) and reference wavelength of 490 nm. […] Cell proliferation was determined by a modified MTS assay with […] […] After 180 minutes incubation, the optical densities (OD) of these samples were directly measured using SPECTRAMAX® plus (Molecular Device, California) and reference wavelength of 490 nm. […] […]

sVEGFR2 = assay: Plasma sVEGFR2 change from baseline in patients; type: in vivo, human
[5] = test system: VEGF-stimulated cancer cell lines; assay: VEGF-stimulated tumor cell proliferation, panel of cancer cell lines; type: cell-based; details: in vitro
[6] = test system: A2780 ovarian cancer cells; assay: FGF2-induced proliferation of A2780 ovarian cancer cells (modified MTS assay); type: cell-based
Description: as §1

pERK and pAKT = assay: Western blot of downstream pERK and pAKT after FGF2 stimulation; type: cell-based; details: 2 μm brivanib, 40 ng/ml FGF2, HCC cell line
Description: Anti-FGFR1, Anti-VEGFR2, Anti-ERK, Anti-AKT, and Anti-alpha tubulin antibodies were also utilized. Blots were incubated with indicated primary antibodies and 1:7500 horseradish peroxidase-conjugated secondary antibodies. All primary antibodies were used at a final concentration of 1 μg/ml. The blots were then visualized with a chemiluminescent detection system.

FGF pathway = assay: Gene set enrichment analysis of FGF pathway expression after FGF2 stimulation; type: cell-based; details: 1 μm drug after FGF2 stimulation
Description: The expression profiles of individual genes within each pathway were analyzed, and the log of the change in expression profile for each condition was measured. Overall, 67 pathways were analyzed. Each gene analyzed for each pathway have not been provided. But, 46 genes from the FGF pathway, 62 genes from the VEGF pathway were analyzed, and a larger generic number of genes consisting of 92 genes for the FGF pathway were analyzed using the AMBION® gene set.

- IC50 ([4]; pancreatic cancer cell line MIAPAC-2, read-out: IC50, FGF2-induced cell growth): < 500 nM
- IC50 ([6]; ovarian cancer cell line A2870, read-out: IC50, FGF2-induced cell growth): < 1000 nM
Substance: [(1R),2S]-2-Aminopropionic acid 2-[4-(4-fluoro-2-methyl-1H-indol-5-yloxy)-5-methylpyrrolo[2,1-f][1,2,4]triazin-6-yloxy]-1-methylethyl ester [brivanib]
- Brivanib-resistant (>3 μM) cell lines, number ([1]; Bladder cell lines): 2
- Brivanib-sensitive (≦3 μM) cell lines, number ([1]; Bladder cell lines): 1
- Brivanib-sensitive (≦3 μM) cell lines, number ([1]; Colon cell lines): 0
- Brivanib-sensitive (≦3 μM) cell lines, number ([1]; NSCLC cell lines): 2
- Brivanib-resistant (>3 μM) cell lines, number ([1]; Prostate cell lines): 1
- Brivanib-resistant (>3 μM) cell lines, number ([1]; Total of cell lines): 10
- inhibition of FGF2-induced tumor cell proliferation ([1]; panel of cancer cell lines, in vitro): inhibited FGF2-induced tumor cell proliferation in 16 cancer cell lines; also recorded: inhibits FGF2-induced tumor cell line growth with much lower IC50 values than sunitinib
- modulation of FGF2 growth factor gene expression levels [2]: modulated FGF2 growth factor gene expression levels
- Brivanib-resistant (>3 μM) cell lines, number ([3]; Colon cell lines): 3
- Brivanib-resistant (>3 μM) cell lines, number ([3]; NSCLC cell lines): 1
- Brivanib-resistant (>3 μM) cell lines, number ([3]; Ovarian cell lines): 1
- Brivanib-sensitive (≦3 μM) cell lines, number ([3]; Ovarian cell lines): 1
- Brivanib-resistant (>3 μM) cell lines, number ([3]; Pancreatic cell lines): 1
- Brivanib-sensitive (≦3 μM) cell lines, number ([3]; Pancreatic cell lines): 1
- Brivanib-sensitive (≦3 μM) cell lines, number ([3]; Prostate cell lines): 1
- Brivanib-resistant (>3 μM) cell lines, number ([3]; Renal cell lines): 1
- Brivanib-sensitive (≦3 μM) cell lines, number ([3]; Renal cell lines): 3
- Brivanib-sensitive (≦3 μM) cell lines, number ([3]; Total of cell lines): 9
- effect on FGF2-induced cellular proliferation ([4]; MIAPAC-2 pancreatic cancer cells): potently inhibited; also recorded: inhibits ovarian cancer and pancreatic cancer cell line growth directly
- inhibition of FGF2-induced cell growth ([4]; pancreatic cancer cell line MIAPAC-2): > 50%
- inhibition of VEGF-induced cellular proliferation in GEO cells (GEO colon cancer cells): did not potently inhibit
- sVEGFR2 change from baseline (%) (Day 26) (n = 39) (sVEGFR2; FGF2+ patients (n = 24)): −23%
- sVEGFR2 change from baseline (%) (Day 26) (n = 39) (sVEGFR2; FGF2− patients (n = 19)): −15%
- effect on tumor cell proliferation in the presence of VEGF [5]: no affect on tumor cell proliferation
- effect on FGF2-induced cellular proliferation ([6]; A2780 ovarian cancer cells): potently inhibited; also recorded: inhibits ovarian cancer and pancreatic cancer cell line growth directly
- inhibition of FGF2-induced cell growth ([6]; ovarian cancer cell line A2870): > 50%
- downstream pathway pERK and pAKT (pERK and pAKT): affecting downstream pathway genes such as pERK and pAKT
- FGF2-induced FGF pathway up-regulation (expression) (FGF pathway): inhibited only by brivanib; also recorded: abrograted only in the presence of only brivanib
